Reference: PubChem BioAssay AID184 (DTP/NCI, 2004)
“And” between values parts separate entries of the source, which are not always exact repeats. Identical values can stand only once. Inconclusive results and toxic doses are left out.

System: BALB/cJ mice, ADJ-PC-6 ip tumor, median survival T/C
Experiment: NCI In Vivo Anticancer Drug Screen. Data for tumor model ADJ-PC-6 (intraperitoneal) in BALB/cJ mice
Conditions: endpoint: median survival time, higher = longer survival
Description: The antitumor activity of compounds was measured in mice bearing transplantable tumors. Survival or tumor size were measured and the results are expressed as the measurement made in the treated group (T) divided by the measurement made in the vehicle treated control group (C). The tumor model used in this assay is ADJ-PC-6 (intraperitoneal) in BALB/cJ mice

[1] = dose: 50.0 mg/kg/injection, schedule: Q04DX003 (ip), vehicle: saline with Tween-80
[2] = dose: 200.0 mg/kg/injection, schedule: Q04DX003 (ip), vehicle: Klucel (hydroxypropylcellulose) (HPC)
[3] = dose: 10.0 mg/kg/injection, schedule: Q04DX003 (ip), vehicle: saline
[4] = dose: 20.0 mg/kg/injection, schedule: Q04DX003 (ip), vehicle: saline
[5] = dose: 40.0 mg/kg/injection, schedule: Q04DX003 (ip), vehicle: saline
[6] = dose: 80.0 mg/kg/injection, schedule: Q04DX003 (ip), vehicle: saline
[7] = dose: 6.25 mg/kg/injection, schedule: Q04DX003 (ip), vehicle: saline with Tween-80
[8] = dose: 25.0 mg/kg/injection, schedule: Q04DX003 (ip), vehicle: saline with Tween-80
[9] = dose: 100.0 mg/kg/injection, schedule: Q04DX003 (ip), vehicle: saline with Tween-80
[10] = dose: 0.25 mg/kg/injection, schedule: Q04DX003 (ip), vehicle: saline
[11] = dose: 0.5 mg/kg/injection, schedule: Q04DX003 (ip), vehicle: saline
[12] = dose: 2.0 mg/kg/injection, schedule: Q04DX003 (ip), vehicle: saline
[13] = dose: 5.0 mg/kg/injection, schedule: Q04DX003 (ip), vehicle: saline
[14] = dose: 8.0 mg/kg/injection, schedule: Q04DX003 (ip), vehicle: saline

CN(C)/N=N/c1nc[nH]c1C(N)=O
T/C (dose: 50.0 mg/kg/injection, schedule: Q01DX009 (ip), vehicle: saline with Tween-80): 99 % of control
T/C [1]: 335 % of control and 471 % of control
T/C (dose: 100.0 mg/kg/injection, schedule: Q01DX009 (ip), vehicle: saline with Tween-80): 110 % of control
T/C (dose: 200.0 mg/kg/injection, schedule: Q01DX009 (ip), vehicle: saline with Tween-80): 105 % of control
T/C [2]: 216 % of control and 275 % of control
T/C (dose: 200.0 mg/kg/injection, schedule: Q04DX003 (ip), vehicle: saline with Tween-80): 335 % of control and 471 % of control
T/C (dose: 400.0 mg/kg/injection, schedule: Q04DX003 (ip), vehicle: Klucel (hydroxypropylcellulose) (HPC)): 275 % of control and 369 % of control
T/C (dose: 400.0 mg/kg/injection, schedule: Q04DX003 (ip), vehicle: saline with Tween-80): 227 % of control and 335 % of control and 471 % of control

Nc1nc(F)nc2c1ncn2C1OC(COP(=O)(O)O)C(O)C1O (stereo not given)
T/C (dose: 25.0 mg/kg/injection, schedule: Q01DX009 (ip), vehicle: saline): 90 % of control
T/C (dose: 50.0 mg/kg/injection, schedule: Q01DX009 (ip), vehicle: saline): 91 % of control
T/C (dose: 100.0 mg/kg/injection, schedule: Q01DX009 (ip), vehicle: saline): 104 % of control

CC[C@](O)(C(=O)O)c1cc2n(c(=O)c1CO)Cc1cc3ccccc3nc1-2
T/C (dose: 3.75 mg/kg/injection, schedule: Q04DX003 (ip), vehicle: saline): 111 % of control
T/C (dose: 7.5 mg/kg/injection, schedule: Q04DX003 (ip), vehicle: saline): 120 % of control
T/C [3]: 158 % of control
T/C (dose: 15.0 mg/kg/injection, schedule: Q04DX003 (ip), vehicle: saline): 115 % of control
T/C [4]: 185 % of control
T/C (dose: 30.0 mg/kg/injection, schedule: Q04DX003 (ip), vehicle: saline): 158 % of control
T/C [5]: 174 % of control
T/C (dose: 60.0 mg/kg/injection, schedule: Q04DX003 (ip), vehicle: saline): 188 % of control
T/C [6]: 196 % of control

Cc1c2ccncc2c(C)c2c1[nH]c1ccccc12
T/C [7]: 122 % of control
T/C [8]: 190 % of control
T/C [1]: 255 % of control
T/C [9]: 250 % of control

CC1(C)N=C(N)N=C(N)N1c1ccc(CCCCc2ccc(S(=O)(=O)F)cc2Cl)c(Cl)c1
T/C (dose: 2.5 mg/kg/injection, schedule: Q01DX009 (ip), vehicle: saline): 88 % of control
T/C (dose: 5.0 mg/kg/injection, schedule: Q01DX009 (ip), vehicle: saline): 101 % of control
T/C (dose: 10.0 mg/kg/injection, schedule: Q01DX009 (ip), vehicle: saline): 106 % of control
T/C (dose: 12.5 mg/kg/injection, schedule: Q04DX003 (ip), vehicle: Klucel (hydroxypropylcellulose) (HPC)): 96 % of control
T/C (dose: 20.0 mg/kg/injection, schedule: Q01DX009 (ip), vehicle: saline): 119 % of control
T/C (dose: 25.0 mg/kg/injection, schedule: Q04DX003 (ip), vehicle: Klucel (hydroxypropylcellulose) (HPC)): 91 % of control
T/C (dose: 50.0 mg/kg/injection, schedule: Q04DX003 (ip), vehicle: Klucel (hydroxypropylcellulose) (HPC)): 92 % of control
T/C (dose: 100.0 mg/kg/injection, schedule: Q04DX003 (ip), vehicle: Klucel (hydroxypropylcellulose) (HPC)): 91 % of control
T/C [2]: 91 % of control

CCC1(O)CC2CN(CCc3c([nH]c4ccccc34)C(C(=O)OC)(c3cc4c(cc3OC)N(C)C3C(O)(C(N)=O)C(O)C5(CC)C=CCN6CCC43C65)C2)C1 (stereo not given) (tested in a mixture with another compound)
T/C [10]: 92 % of control and 100 % of control
T/C [11]: 106 % of control
T/C (dose: 1.0 mg/kg/injection, schedule: Q04DX003 (ip), vehicle: saline): 102 % of control
T/C [12]: 115 % of control and 235 % of control

Cc1ncc(CO)c(CO)c1O
T/C (dose: 50.0 mg/kg/injection, schedule: Q01DX014 (sc), vehicle: saline): 115 % of control
T/C (dose: 100.0 mg/kg/injection, schedule: Q01DX014 (sc), vehicle: saline): 99 % of control
T/C (dose: 200.0 mg/kg/injection, schedule: Q01DX014 (sc), vehicle: saline): 120 % of control
T/C (dose: 400.0 mg/kg/injection, schedule: Q01DX014 (sc), vehicle: saline): 117 % of control

CCN(CC)CCNc1ccc(C)c2sc3ccccc3c(=O)c12
T/C (dose: 12.5 mg/kg/injection, schedule: Q04DX003 (ip), vehicle: water): 103 % of control
T/C (dose: 50.0 mg/kg/injection, schedule: Q04DX003 (ip), vehicle: water): 113 % of control
T/C (dose: 100.0 mg/kg/injection, schedule: Q04DX003 (ip), vehicle: water): 91 % of control

CCCCCCCC(=O)N/N=C(\CO)[C@]1(O)Cc2c(O)c3c(c(O)c2[C@@H](OC2CC(N)C(O)C(C)O2)C1)C(=O)c1c(OC)cccc1C3=O (stereo not given in full)
T/C [13]: 165 % of control
T/C [3]: 242 % of control
T/C [4]: 180 % of control
T/C [5]: 226 % of control
T/C [6]: 118 % of control

CC(=O)[C@]1(O)Cc2c(O)c3c(c(O)c2[C@@H](OC2CC(N)C(O)C(C)O2)C1)C(=O)c1c(O)cccc1C3=O (stereo not given in full)
T/C (dose: 0.13 mg/kg/injection, schedule: Q04DX003 (ip), vehicle: saline): 164 % of control
T/C [10]: 168 % of control
T/C [11]: 178 % of control

O=C1NC(=O)C2C3C=CC(C12)C1C2C(=O)NC(=O)C2C31 (stereo not given)
T/C (dose: 5.0 mg/kg/injection, schedule: Q01DX009 (ip), vehicle: saline with Tween-80): 110 % of control
T/C (dose: 10.0 mg/kg/injection, schedule: Q01DX009 (ip), vehicle: saline with Tween-80): 88 % of control and 103 % of control
T/C (dose: 80.0 mg/kg/injection, schedule: Q01DX009 (ip), vehicle: saline with Tween-80): 235 % of control

COc1cc(NS(C)(=O)=O)ccc1Nc1c2ccccc2nc2ccccc12
T/C (dose: 5.0 mg/kg/injection, schedule: Q04DX003 (ip), vehicle: other): 161 % of control
T/C (dose: 10.0 mg/kg/injection, schedule: Q04DX003 (ip), vehicle: other): 205 % of control

CNc1nc(N(C)C)nc(N(C)C)n1
T/C (dose: 19.4 mg/kg/injection, schedule: Q01DX014 (ip), vehicle: saline): 101 % of control
T/C (dose: 19.4 mg/kg/injection, schedule: Q01DX014 (sc), vehicle: saline): 100 % of control and 105 % of control
T/C (dose: 32.4 mg/kg/injection, schedule: Q01DX014 (sc), vehicle: saline): 152 % of control
T/C (dose: 54.0 mg/kg/injection, schedule: Q01DX014 (ip), vehicle: saline): 150 % of control
T/C (dose: 54.0 mg/kg/injection, schedule: Q01DX014 (sc), vehicle: saline): 208 % of control
T/C (dose: 90.0 mg/kg/injection, schedule: Q01DX014 (ip), vehicle: saline): 181 % of control and 297 % of control
T/C (dose: 90.0 mg/kg/injection, schedule: Q01DX014 (sc), vehicle: saline): 213 % of control and 243 % of control
T/C (dose: 150.0 mg/kg/injection, schedule: Q01DX014 (ip), vehicle: saline): 45 % of control

N[C@@H](Cc1ccc(N(CCCl)CCCl)cc1)C(=O)O
T/C [12]: 177 % of control
T/C (dose: 2.5 mg/kg/injection, schedule: Q04DX003 (ip), vehicle: saline): 203 % of control
T/C (dose: 4.0 mg/kg/injection, schedule: Q04DX003 (ip), vehicle: saline): 236 % of control
T/C [13]: 240 % of control
T/C [14]: 230 % of control
T/C [3]: 335 % of control
T/C (dose: 16.0 mg/kg/injection, schedule: Q04DX003 (ip), vehicle: saline): 307 % of control

COc1cc([C@@H]2c3cc4c(cc3[C@@H](OC3OC5COC(C)OC5C(O)C3O)[C@H]3COC(=O)[C@H]23)OCO4)cc(OC)c1O (stereo not given in full)
T/C [13]: 201 % of control
T/C [7]: 224 % of control
T/C [3]: 337 % of control
T/C (dose: 12.5 mg/kg/injection, schedule: Q04DX003 (ip), vehicle: saline with Tween-80): 247 % of control
T/C [4]: 355 % of control
T/C [8]: 337 % of control
T/C [5]: 355 % of control
T/C [1]: 337 % of control
T/C [6]: 355 % of control
T/C [9]: 337 % of control

Nc1ncn(C2OC(CO)C(O)C2O)c(=O)n1 (stereo not given)
T/C [12]: 120 % of control
T/C [14]: 157 % of control
T/C [3]: 185 % of control
T/C [4]: 219 % of control
T/C (dose: 32.0 mg/kg/injection, schedule: Q04DX003 (ip), vehicle: saline): 235 % of control

[Cl][Pt+2][Cl].[NH-]C1CCC1.[NH2-]
T/C (dose: 1.04 mg/kg/injection, schedule: Q04DX003 (ip), vehicle: water): 216 % of control
T/C (dose: 1.73 mg/kg/injection, schedule: Q04DX003 (ip), vehicle: water): 265 % of control
T/C (dose: 2.88 mg/kg/injection, schedule: Q04DX003 (ip), vehicle: water): 301 % of control
